Values quoted from earlier work, collected in patent US20150275270A1, “COMPOSITIONS AND METHODS FOR THE ANALYSIS OF DEGRADED NUCLEIC ACIDS” (ALTHEADX, INC., priority 2005, published 2015).

Conditions: clinical studies / post-marketing reports

| Structure (SMILES) | drug-induced hepatotoxicity (clinical reports) |
| --- | --- |
| Cc1c(C)c2c(c(C)c1O)CCC(C)(COc1ccc(CC3SC(=O)NC3=O)cc1)O2 (stereo not drawn) [Troglitazone, troglitazone] | severe idiosyncratic hepatocellular injury |
| CCc1ccc(CCOc2ccc(CC3SC(=O)NC3=O)cc2)nc1 (stereo not drawn) [pioglitazone] | no evidence of drug-induced hepatotoxicity |
| CN(CCOc1ccc(CC2SC(=O)NC2=O)cc1)c1ccccn1 (stereo not drawn) [rosiglitazone] | no evidence of drug-induced hepatotoxicity |
